Test system: phosphorylation of Serine 473 in Akt
Experiment: In Vitro Phospho-Ser473 Akt Assay in MDA-MB-468 cells
Assay type: cell-based
Settings: Homo sapiens, MDA-MB-468, read-out: IC50 values against mTOR, phospho-Ser473 Akt assay, MDA-MB-468 cells, upper bound

SMILES	IC50
C[C@H]1COCCN1c1nc(-c2ccncc2)nc2nc(-c3cccc(CO)c3)ccc12 [Example 19q]	< 1 µM
COc1cncc(-c2nc(N3CCOC[C@@H]3C)c3ccc(-c4cccc(CO)c4)nc3n2)c1 [Example 19s]	< 1 µM
C[C@H]1COCCN1c1nc(-c2cccnc2F)nc2nc(-c3cccc(CO)c3)ccc12 [Example 19u]	< 1 µM
C[C@H]1COCCN1c1nc(-c2cnn(C)c2)nc2nc(-c3cccc(CO)c3)ccc12 [Example 19v]	< 1 µM
Cc1nn(C)c(C)c1-c1nc(N2CCOC[C@@H]2C)c2ccc(-c3cccc(CO)c3)nc2n1 [Example 19w]	< 1 µM
